Activity calls are given as the source filed them. No cut-off for these calls is given here.
Assays:
[1] = tested on: SH-SY5Y; assay: Cytotoxicity against human SH-SY5Y cells upto 10 uM incubated for 24 hrs; assay type: toxicity, cell-based
[2] = tested on: SH-SY5Y; assay: Cytotoxicity against human SH-SY5Y cells assessed as decrease in neutral red dye uptake at 25 uM incubated for 24 hrs relative to control; assay type: toxicity, cell-based; parameters: scale not given: the % may be the effect or the level left
[3] = tested on: SH-SY5Y; assay: Cytotoxicity against human SH-SY5Y cells assessed as decrease in neutral red dye uptake at 50 uM incubated for 24 hrs relative to control; assay type: toxicity, cell-based; parameters: scale not given: the % may be the effect or the level left
[4] = tested on: SH-SY5Y; assay: Cytotoxicity against human SH-SY5Y cells assessed as decrease in resazurin dye upto 50 uM incubated for 24 hrs; assay type: toxicity, cell-based
[5] = tested on: SH-SY5Y; assay: Neuroprotective effect in MPP+-induced cytotoxicity in human SH-SY5Y cells assessed as increase in neutral red dye uptake at 1 to 10 uM preincubated with 500 uM MPP+ for 30 mins followed by compound treatment for 24 hrs; assay type: functional, cell-based; conditions: dose 1-10 µM, time 24.5 hrs
[6] = tested on: SH-SY5Y; assay: Cytotoxicity against human SH-SY5Y cells assessed as decrease in neutral red dye uptake at 10 uM incubated for 24 hrs relative to control; assay type: toxicity, cell-based; parameters: scale not given: the % may be the effect or the level left
[7] = tested on: SH-SY5Y; assay: Cytotoxicity against human SH-SY5Y cells assessed as decrease in resazurin dye at 25 uM incubated for 24 hrs relative to control; assay type: toxicity, cell-based; parameters: scale not given: the % may be the effect or the level left
[8] = tested on: SH-SY5Y; assay: Cytotoxicity against human SH-SY5Y cells assessed as decrease in resazurin dye at 50 uM incubated for 24 hrs relative to control; assay type: toxicity, cell-based; parameters: scale not given: the % may be the effect or the level left
[9] = tested on: SH-SY5Y; assay: Cytotoxicity against human SH-SY5Y cells at 5 uM incubated for 24 hrs; assay type: toxicity, cell-based
[10] = tested on: SH-SY5Y; assay: Neuroprotective effect in MPP+-induced cytotoxicity in human SH-SY5Y cells assessed as increase in neutral red dye uptake at 1 uM preincubated with 500 uM MPP+ for 30 mins followed by compound treatment for 24 hrs (reference value: 83.3 %); assay type: functional; conditions: time 24.5 hrs
[11] = tested on: SH-SY5Y; assay: Neuroprotective effect in MPP+-induced cytotoxicity in human SH-SY5Y cells assessed as increase in neutral red dye uptake at 2.5 uM preincubated with 500 uM MPP+ for 30 mins followed by compound treatment for 24 hrs (reference value: 83.3 %); assay type: functional; conditions: time 24.5 hrs
[12] = tested on: SH-SY5Y; assay: Neuroprotective effect in MPP+-induced cytotoxicity in human SH-SY5Y cells assessed as increase in neutral red dye uptake at 5 uM preincubated with 500 uM MPP+ for 30 mins followed by compound treatment for 24 hrs (reference value: 83.3 %); assay type: functional; conditions: time 24.5 hrs
[13] = tested on: SH-SY5Y; assay: Neuroprotective effect in MPP+-induced cytotoxicity in human SH-SY5Y cells assessed as increase in neutral red dye uptake at 1 uM preincubated with 1000 uM MPP+ for 30 mins followed by compound treatment for 24 hrs (reference value: 75.8 %); assay type: functional; conditions: time 24.5 hrs
[14] = tested on: SH-SY5Y; assay: Neuroprotective effect in MPP+-induced cytotoxicity in human SH-SY5Y cells assessed as increase in neutral red dye uptake at 2.5 uM preincubated with 1000 uM MPP+ for 30 mins followed by compound treatment for 24 hrs (reference value: 75.8 %); assay type: functional; conditions: time 24.5 hrs
[15] = tested on: SH-SY5Y; assay: Neuroprotective effect in MPP+-induced cytotoxicity in human SH-SY5Y cells assessed as increase in neutral red dye uptake at 5 uM preincubated with 1000 uM MPP+ for 30 mins followed by compound treatment for 24 hrs (reference value: 75.8 %); assay type: functional; conditions: time 24.5 hrs
[16] = tested on: SH-SY5Y; assay: Neuroprotective effect in Fe3+-induced cytotoxicity in human SH-SY5Y cells assessed as increase in neutral red dye uptake at 1 uM preincubated with 500 uM FeNTA for 30 mins followed by compound treatment for 24 hrs (reference value: 81.4 %); assay type: functional; conditions: time 24.5 hrs
[17] = tested on: SH-SY5Y; assay: Neuroprotective effect in MPP+-induced cytotoxicity in human SH-SY5Y cells assessed as increase in neutral red dye uptake at 1 uM preincubated with 500 uM MPP+ for 30 mins followed by compound treatment for 24 hrs (reference value: 81.1 %); assay type: functional; conditions: time 24.5 hrs
[18] = tested on: SH-SY5Y; assay: Neuroprotective effect in MPP+-induced cytotoxicity in human SH-SY5Y cells assessed as increase in neutral red dye uptake at 2.5 uM preincubated with 500 uM MPP+ for 30 mins followed by compound treatment for 24 hrs (reference value: 81.1 %); assay type: functional; conditions: time 24.5 hrs
[19] = tested on: SH-SY5Y; assay: Neuroprotective effect in MPP+-induced cytotoxicity in human SH-SY5Y cells assessed as increase in neutral red dye uptake at 5 uM preincubated with 500 uM MPP+ for 30 mins followed by compound treatment for 24 hrs (reference value: 81.1 %); assay type: functional; conditions: time 24.5 hrs
[20] = tested on: SH-SY5Y; assay: Neuroprotective effect in MPP+-induced cytotoxicity in human SH-SY5Y cells assessed as increase in neutral red dye uptake at 1 uM preincubated with 500 uM MPP+ for 30 mins followed by compound treatment for 24 hrs (reference value: 75 %); assay type: functional; conditions: time 24.5 hrs
[21] = tested on: SH-SY5Y; assay: Neuroprotective effect in MPP+-induced cytotoxicity in human SH-SY5Y cells assessed as increase in neutral red dye uptake at 2.5 uM preincubated with 500 uM MPP+ for 30 mins followed by compound treatment for 24 hrs (reference value: 75 %); assay type: functional; conditions: time 24.5 hrs
[22] = tested on: SH-SY5Y; assay: Neuroprotective effect in Fe3+-induced cytotoxicity in human SH-SY5Y cells assessed as increase in neutral red dye uptake at 1 to 10 uM preincubated with 500 to 1000 uM FeNTA for 30 mins followed by compound treatment for 24 hrs; assay type: functional, cell-based; conditions: dose 1-10 µM, time 24.5 hrs
[23] = tested on: SH-SY5Y; assay: Cytotoxicity against human SH-SY5Y cells assessed as decrease in resazurin dye at 10 uM incubated for 24 hrs relative to control; assay type: toxicity, cell-based; parameters: scale not given: the % may be the effect or the level left
[24] = tested on: SH-SY5Y; assay: Induction of ROS production in human SH-SY5Y cells at 50 uM incubated for 24 hrs by DCFH-DA probe based analysis relative to control; assay type: functional
[25] = tested on: SH-SY5Y; assay: Neuroprotective effect in MPP+-induced cytotoxicity in human SH-SY5Y cells assessed as increase in neutral red dye uptake at 2.5 uM preincubated with 500 uM MPP+ for 30 mins followed by compound treatment for 24 hrs (reference value: 83.9 %); assay type: functional; conditions: time 24.5 hrs
[26] = tested on: SH-SY5Y; assay: Neuroprotective effect in MPP+-induced cytotoxicity in human SH-SY5Y cells assessed as increase in neutral red dye uptake at 1 uM preincubated with 1000 uM MPP+ for 30 mins followed by compound treatment for 24 hrs (reference value: 76.2 %); assay type: functional; conditions: time 24.5 hrs
[27] = tested on: SH-SY5Y; assay: Neuroprotective effect in MPP+-induced cytotoxicity in human SH-SY5Y cells assessed as increase in neutral red dye uptake at 2.5 uM preincubated with 1000 uM MPP+ for 30 mins followed by compound treatment for 24 hrs (reference value: 76.2 %); assay type: functional; conditions: time 24.5 hrs
[28] = tested on: SH-SY5Y; assay: Neuroprotective effect in MPP+-induced cytotoxicity in human SH-SY5Y cells assessed as increase in neutral red dye uptake at 5 uM preincubated with 1000 uM MPP+ for 30 mins followed by compound treatment for 24 hrs (reference value: 76.2 %); assay type: functional; conditions: time 24.5 hrs
[29] = tested on: SH-SY5Y; assay: Neuroprotective effect in Fe3+-induced cytotoxicity in human SH-SY5Y cells assessed as increase in neutral red dye uptake at 2.5 to 5 uM preincubated with 1000 uM FeNTA for 30 mins followed by compound treatment for 24 hrs; assay type: functional, cell-based; conditions: dose 2.5-5 µM, time 24.5 hrs
[30] = tested on: SH-SY5Y; assay: Cytotoxicity against human SH-SY5Y cells assessed as decrease in neutral red dye uptake upto 50 uM incubated for 24 hrs; assay type: toxicity, cell-based

SMILES: Clc1ccccc1-c1nc(-c2nnnn2Cc2ccccc2)cc2c1[nH]c1ccccc12
- Activity [1]: Non-Toxic
- Activity [2]: 84%
- Activity [3]: 81.7%
- Activity [4]: Non-Toxic
- Activity [5]: Active

SMILES: c1ccc(Cn2nnnc2-c2cc3c([nH]c4ccccc43)c(-c3ccccc3)n2)cc1
- Activity [6]: 85.6%
- Activity [2]: 81.3%
- Activity [3]: 65.9%
- Activity [7]: 74%
- Activity [8]: 59.3%
- Activity [9]: Non-Toxic
- Activity [10]: 91.4%
- Activity [11]: 92.1%
- Activity [12]: 93.5%
- Activity [13]: 87.1%
- Activity [14]: 84.6%
- Activity [15]: 89.1%
- Activity [16]: 87.6%

SMILES: CN(C)c1ccc(-c2nc(-c3nnnn3Cc3ccccc3)cc3c2[nH]c2ccccc23)cc1
- Activity [1]: Non-Toxic
- Activity [3]: 80.5%
- Activity [17]: 97.8%
- Activity [18]: 92.3%
- Activity [19]: 85.8%
- Activity [20]: 90.3%
- Activity [21]: 83.6%
- Activity [22]: inactive

SMILES: Fc1ccc(-c2nc(-c3nnnn3Cc3ccccc3)cc3c2[nH]c2ccccc23)cc1
- Activity [6]: 83.6%
- Activity [2]: 70.5%
- Activity [3]: 56.1%
- Activity [23]: 80%
- Activity [7]: 62.2%
- Activity [8]: 48.5%
- Activity [9]: Non-Toxic
- Activity [24]: 108.2%
- Activity [25]: 91.4%
- Activity [26]: 84.8%
- Activity [27]: 83.4%
- Activity [28]: 83.2%
- Activity [29]: Active

SMILES: O=[N+]([O-])c1cccc(-c2nc(-c3nnnn3Cc3ccccc3)cc3c2[nH]c2ccccc23)c1
- Activity [1]: Non-Toxic
- Activity [8]: 92.6%
- Activity [30]: Non-Toxic
- Activity [5]: inactive

Source: ChEMBL document CHEMBL6127023, “3-Tetrazolyl-β-carboline derivatives as potential neuroprotective agents” (Bioorg Med Chem, 2024)
